Assay results reported in patent publication EP3431468B1, “USE OF ADIPONECTIN RECEPTOR AGONISTS IN TREATING DEPRESSION, ANXIETY AND NEUROINFLAMMATION” (CENTRE NATIONAL DE LA RECHERCHE SCIENTIFIQUE, priority 2017, dated 2019).

Test system: wt and depression-like mouse models
Assay: Forced Swimming test (FST), acute administration
Format: in vivo
Conditions: LPS-treated mice (0.83 mg/kg LPS), 1mg/kg ip
Protocol: Three well-established mouse models of depression-like behavior have been used in the present study namely i- the long-term corticosterone treatment in the drinking water (David, Samuels et al. 2009), ii- the peripheral administration of LPS (O'Connor, Lawson et al. 2009) iii- the ApN^-/- mice (Liu, Guo et al. 2012). For chronic AdipoRon treatment, the experimental protocol was as followed: • i- Five weeks old male mice (five/cage) received corticosterone (35mg/L dissolved in tap water containing 4 g/L CD) or vehicle alone ad libitum for during 7 consecutive weeks (David, Samuels et al. 2009). Corticosterone and vehicle solutions were changed every 3 days to prevent possible degradation. […]
All behavioral testing were conducted during the light phase (between 09:00 and 14:00 am) in compliance with the Institutional Animal Care and Use Committee of the University of Nice-Sophia Antipolis (permission number 010344.01 from the French "Ministère de l'Enseignement Supérieur et de la Recherche" granted to Dr. Joëlle Chabry). • Forced Swimming test (FST) - Mice were placed an inescapable transparent tank (20cm diameter, 30cm deep) filled with water (23°C ± 0.5) for six minutes as previously described by Porsolt et al. (1977). […] To initiate testing, mice were placed into the light side and activity was recorded for 5 minutes. […]

O=C(COc1ccc(C(=O)c2ccccc2)cc1)NC1CCN(Cc2ccccc2)CC1 [AdipoRon, 2-(4-Benzoylphenoxy)-N-[1-(phenylmethyl)-4-piperidinyl]-acetamide]
immobility time in the FST: significantly to reducing this parameter
